Assay [1] concerns TNFα. In words: Immunohistochemistry for inflammatory marker TNFα on contused spinal cord. It is filed as in vivo. To be noted: rats after contusion injury; 72 h post-injury, 1 mm caudal to epicenter. Here is the method:
(§1) Compound A was tested in both the rat dorsal hemisection (Guth, L. et al. (1980), J. Neurosurgery 52: 73-86) and contusion models (Scheff, S. W. (2003), J. Neurotrauma 20: 179-193) for evaluation of efficacy. These models are widely used in the field of spinal cord injury and replicate many of the pathological aspects found in humans who have sustained a spinal cord injury. Rats were subjected to an experimental spinal cord injury at T8, and were given Compound A shortly thereafter. Behavioral tests to assess the locomotion deficits were performed after the lesion. At the end of the experiment, animals were sacrificed and the spinal cord was collected for histopathological analysis. […] Histological assessment of the tissue at the site of injury was also made in both the drug treated and untreated group. In particular, subsequent to the behavioral measurement, spinal cord tissue from each animal was obtained and serial transverse tissue sections were stained with either anti-neurofilament antibody or antibodies specific for the inflammatory markers, tumor necrosis factor alpha (TNFα) and for the inducible form of nitric oxide synthetase (iNOS), followed by incubation with Alexa Fluor®-conjugated secondary antibodies.
(§2) Histological assessment of the tissue at the site of injury was also made in both the drug treated and untreated group. […]

Assay [2] deals with iNOS. In words: Immunohistochemistry for inflammatory marker iNOS on contused spinal cord. The following applies: rats after contusion injury; 72 h post-injury, 1 mm caudal to epicenter. It is filed as in vivo. Here is the method: as §1, §2
Assay [3] concerns contused spinal cord injury. In words: Spinal cord injury, contusion model, BBB locomotor score. It is filed as in vivo, Sprague-Dawley rats. To be noted: SCI Study No. 4; 14 day contusion; rats; 20 mg/kg BID i.p., 75% PEG200 formulation. Here is the method:
as §1, with “In particular, subsequent to the behavioral measurement, spinal cord tissue from each animal was obtained and serial transverse tissue sections were stained with either anti-neurofilament antibody or antibodies specific for the inflammatory markers, tumor necrosis factor alpha (TNFα) and for the inducible form of nitric oxide synthetase (iNOS), followed by incubation with Alexa Fluor®-conjugated secondary antibodies.” left out
The BBB score is a 21-point scale representing 21 stages of locomotor recovery after spinal cord injury. The scale is based on unique combinations of scored behaviors, ranked according to time of appearance after injury. […]

Consider `CC(=O)Nc1ccc(C(=O)NC(C)(C)C)cc1` [Compound A, N-tert-butyl-4-acetamidobenzamide], for which the “inflammatory marker TNFα in the region of the corticospinal tract vs untreated control” value in assay [1] is on record as “decreased”. In addition, the “inflammatory marker iNOS in the region of the corticospinal tract vs untreated control” value in assay [2] is reported as “decreased”. The “functional neurological outcome, BBB score” value in assay [3] is recorded as “no significant effects were observed”.

Values taken from US20040167226A1, “Methods for the treatment of pain and traumatic injury using benzamides and compositions containing the same” (priority 2002, published 2004).
